Data set [1] is described as follows: Particle size distribution by dynamic light scattering (Zetasizer). It counts as physicochemical. The following applies: in length. How it is done: Results: Particle size distribution as determined by dynamic light scattering of Compound 1 lysine salt nanosuspension post milling is shown below in Table 1B. Samples for particle size distribution was prepared by diluting the Nano milled sample by 100-fold with Di-water. Zetasizer was utilized to measure particle size distribution. PdI is the representation of the distribution of size populations within a given sample. This is a numerical range from 0.0 (for a perfectly uniform sample) through 1.0 (for a highly polydisperse sample with multiple particle size populations). The value D10 refers to a diameter of particles in the sample wherein 10% of the particles in the sample have a diameter smaller than this value (118.8 nm). The value D50 refers to a diameter of particles in the sample wherein 50% of the particles have a diameter smaller than this value (249.0 nm). The value D90 refers to a diameter of particles in the sample wherein 90% of the particles in the sample have a diameter smaller than this value (611 nm).
The stability of the nanosuspension based on particle size distribution under refrigerated condition and room condition is shown below in Table 2.

The nature of data set [2]: In vitro dissolution testing (USP Apparatus 1, basket). The format is physicochemical. The following applies: DI water. As for the experimental part: Dissolution and assay testing for API, F1, F7, F9, F10, F11 and F12.
• 6. Transfer 500 mL of DI water dissolution medium into each vessel. • 7. Equilibrate the dissolution medium to 37.0±0.5° C. • 8. Transfer 600 mg of each formulation granule into a capsule. • 9. Transfer a capsule into a basket and lower to the position. Start stirring at 100 RPM. • 10. At the stated time(s), sample 1 mL solutions by auto-sampler. Assay Sample Preparation (0.3 mg/mL): • 11. Weigh out 18 mg of granules into a […] volumetric flask. • 12. Dissolve and dilute up to the volume with Diluent (50% ACN in H2O). • 13. Mix well.

With `CC(C)c1ccc(N(C)c2ccc3c(c2)OCC[C@H]3CNc2cnccc2C(=O)O)cc1.NCCCC[C@H](N)C(=O)O` [Compound 1 Lysine salt, 3-({[(4R)-7-{methyl[4-(propan-2-yl)phenyl]amino}-3,4-dihydro-2H-1-benzopyran-4-yl]methyl}amino)pyridine-4-carboxylic acid, L-lysine salt], in data set [1], the “initial particle size prior to milling” value was 6-15 micrometer. The “release after 120 minutes” value in data set [2] is “no release at all”.

The record behind these values is patent US20250134874A1, “PHARMACEUTICAL FORMULATIONS COMPRISING 3-({[(4R)-7-{METHYL[4-(PROPAN-2-YL)PHENYL]AMINO}-3,4-DIHYDRO-2H-1-BENZOPYRAN-4-YL]METHYL}AMINO)PYRIDINE-4-CARBOXYLIC ACID” (TACHYON THERAPEUTICS, INC., priority 2021, published 2025).
